Usually IC50 stands for the midpoint of a concentration-inhibition curve.

The record followed here is article PMC11923649, “Novel C-2 Aromatic Heterocycle-Substituted Triterpenoids Inhibit Hedgehog Signaling in GLI1 Overexpression Cancer Cells” (ACS Omega, 2025).

The test system of one test is CCRF-CEM. In words: MTS cytotoxicity assay, 72 h, CCRF-CEM. The test is classed as cell-based. The conditions noted are these: for IC50: Homo sapiens, CCRF-CEM, 72 h, MTS. In outline:
(§1)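 IC50 values come from a tetrazolium (MTS) read-out at 490 nm taken after continuous 72 h exposure to a twofold dilution series from 50 down to 0.0975 μmol/L, with compound added one day after seeding.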
(Tetrazolium dyes change colour on reduction, which living cells bring about.)

The next test has as its system HCT116 p53–/–. In words: MTS cytotoxicity assay, 72 h, HCT116 p53–/–. The test is classed as cell-based. The conditions noted are these: Homo sapiens, HCT-116, 72 h. In outline:
as §1

The test system of another test is K562-TAX. Kind of test: MTS cytotoxicity assay, 72 h, K562-TAX. The test is classed as cell-based.
In another test the test system is DU-145 (prostate cancer). Kind of test: MTS cytotoxicity assay, 72 h, DU-145. Type of test: cell-based, human. Particulars: Homo sapiens, DU-145, 72 h. In outline:
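DU145 cells, grown in RPMI 1640 plus 10% FBS, are plated at 15,000 cells/mL and treated the following day with a 50–0.0975 μmol/L twofold range. After MTS/phenazine methosulfate for 1–4 h, A490 is measured and IC50 determined.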

Test [1] has as its system BJ human skin fibroblasts. In words: MTS cytotoxicity assay, 72 h, BJ fibroblasts. The test is classed as cell-based. The conditions noted are these: normal fibroblasts; for IC50: Homo sapiens, Skin fibroblast. In outline:
as §1

The next test concerns CEM-DNR. In words: MTS cytotoxicity assay, 72 h, CEM-DNR. The conditions noted are these: Homo sapiens. The test is classed as cell-based.
Another test relates to HCT 116. In words: MTS cytotoxicity assay, 72 h, HCT 116. The test is classed as cell-based. Particulars: Homo sapiens, HCT-116, 72 h. In a few lines: as §1
Another test deals with U2OS. In words: MTS cytotoxicity assay, 72 h, U2OS. The test is classed as cell-based. Particulars: Homo sapiens.
Test [2] deals with K562 (chronic myelogenous leukemia). Kind of test: MTS cytotoxicity assay, 72 h, K562. Particulars: Homo sapiens. The test is classed as cell-based. In outline: as §1
The subject of another test is MRC-5 lung fibroblasts. In words: MTS cytotoxicity assay, 72 h, MRC-5 fibroblasts. The test is classed as cell-based, human. Particulars: normal fibroblasts; for IC50: Homo sapiens, MRC5, 72 h. In outline:
as §1

Test [3] concerns A549 (lung adenocarcinoma). In words: MTS cytotoxicity assay, 72 h, A549. Type of test: cell-based. The conditions noted are these: Homo sapiens, A549, 72 h. In a few lines:
as §1

Where [4] appears, read: CCRF-CEM vs average of BJ and MRC-5, full Table S1.
[5] abbreviates: IC50 of CCRF-CEM line vs average of both fibroblasts (BJ and MRC-5), Table 1.

A value given as a limit tells only on which side of the number the result lay.

Consider `C=C(C)[C@@H]1CC[C@]2(C(=O)OCc3ccccc3)CC[C@]3(C)C(CCC4[C@@]5(C)C=C(c6cccnc6)C(=O)C(C)(C)C5CC[C@]43C)C12` (stereo partly shown) [Compound 10g, Benzyl 2-(3-Pyridinyl)-3-oxolupa-1,20(29)-dien-28-oate], for which the “SI (selectivity index)” value with CCRF-CEM (setting [4]) is listed as greater than 1.0. For the same molecule, the IC50 (in the test with CCRF-CEM (full Table S1); in the test on HCT116 p53–/– (full Table S1); in the test with K562-TAX (full Table S1); in the test with DU-145 (prostate cancer) (full Table S1); in test [1] (full Table S1); in the test on CEM-DNR (full Table S1)) was greater than 50 µM each time. Further, the IC50 (in the test on HCT 116 (full Table S1); in the test on U2OS (full Table S1); in test [2] (full Table S1); in the test on MRC-5 lung fibroblasts (full Table S1); in [3] (full Table S1)) was greater than 50 µM throughout.
As for `C=C(C)[C@@H]1CC[C@]2(C(=O)OCc3ccccc3)CC[C@]3(C)C(CCC4[C@@]5(C)C=C(c6cc7ccccc7s6)C(=O)C(C)(C)C5CC[C@]43C)C12` (stereo partly shown) [Compound 10k, Benzyl 2-(Benzo[b]thien-2-yl)-3-oxolupa-1,20(29)-dien-28-oate], in the test with CCRF-CEM (setting [4]), the “SI (selectivity index)” value is given as greater than 1.0. Also, the IC50 (with CCRF-CEM (full Table S1); in the test on HCT116 p53–/– (full Table S1); in the test with K562-TAX (full Table S1); in the test with DU-145 (prostate cancer) (full Table S1); in [1] (full Table S1); in the test on CEM-DNR (full Table S1)) was greater than 50 µM throughout. Further, the IC50 (with HCT 116 (full Table S1); in the test with U2OS (full Table S1); in test [2] (full Table S1); with MRC-5 lung fibroblasts (full Table S1); in [3] (full Table S1)) was greater than 50 µM in each case.
Regarding `CC1(C)C(=O)C(c2ccncc2)=C[C@@]2(C)C1CC[C@]1(C)C2CCC2C3[C@H]4OC[C@@]3(CCC4(C)C)CC[C@]21C` (stereo partly drawn) [Compound 4h, 2-(Pyridine-4-yl)-19β,28-epoxyolean-1-en-3-one], the IC50 in the test with CCRF-CEM (Table 1) is 19 µM; with CCRF-CEM (full Table S1), 18.7 µM; in the test with HCT116 p53–/– (Table 1) it was greater than 50 µM; in the test with K562-TAX (Table 1), 18 µM; in the test on K562-TAX (full Table S1), 18.1 µM; in the test on DU-145 (prostate cancer) (Table 1), 22 µM. Further, the IC50 in the test on DU-145 (prostate cancer) (full Table S1) was 22.1 µM; in test [1] (Table 1), greater than 50 µM; with CEM-DNR (Table 1), 19 µM; in the test with HCT 116 (Table 1) it was greater than 50 µM; with U2OS (Table 1), greater than 50 µM; in [2] (Table 1), greater than 50 µM. In addition, the IC50 (in the test with MRC-5 lung fibroblasts (Table 1); in test [3] (Table 1)) was greater than 50 µM each time. In the test on CCRF-CEM (setting [5]), the “SI (selectivity index)” value is reported as greater than 2.7.
For the molecule `C=C(C)[C@@H]1CC[C@]2(C(=O)O)CC[C@]3(C)C(CCC4[C@@]5(C)C=C(c6cncc7ccccc67)C(=O)C(C)(C)C5CC[C@]43C)C12` (stereo partly shown) [Compound 11l, 2-(Isoquinoline)-3-oxolupa-1,20(29)-dien-28-oic acid], the IC50 in the test with CCRF-CEM (Table 1) is 7.2 µM; in the test on HCT116 p53–/– (Table 1), 31 µM; in the test with HCT116 p53–/– (full Table S1), 30.8 µM; with K562-TAX (Table 1), 8.7 µM; in the test with DU-145 (prostate cancer) (Table 1), 8.3 µM; in [1] (Table 1) it was greater than 50 µM. Also, the IC50 was 17 µM in the test on CEM-DNR (Table 1); 19 µM in the test on HCT 116 (Table 1); 18.5 µM with HCT 116 (full Table S1); 25 µM in the test on U2OS (Table 1); 24.8 µM with U2OS (full Table S1); greater than 50 µM in [2] (Table 1). Moreover, the IC50 was greater than 50 µM with MRC-5 lung fibroblasts (Table 1), 14 µM in test [3] (Table 1) and 13.9 µM in [3] (full Table S1). Moreover, the “SI (selectivity index)” value in the test on CCRF-CEM (setting [5]) is on record as greater than 7.0. The “IC50 BJ” value in test [1] (Table 1) was “below the detection limit”. The “IC50 MRC-5” value in the test on MRC-5 lung fibroblasts (Table 1) is listed as “below the detection limit”.
In the case of `C=C(C)[C@@H]1CC[C@]2(C(=O)OCc3ccccc3)CC[C@]3(C)C(CCC4[C@@]5(C)C=C(c6cncnc6)C(=O)C(C)(C)C5CC[C@]43C)C12` (stereo partly shown) [Compound 10i, Benzyl 2-(5-Pyrimidinyl)-3-oxolupa-1,20(29)-dien-28-oate], the “SI (selectivity index)” value in the test on CCRF-CEM (setting [4]) was greater than 1.0. Moreover, the IC50 (with CCRF-CEM (full Table S1); in the test with HCT116 p53–/– (full Table S1); in the test with K562-TAX (full Table S1); in the test on DU-145 (prostate cancer) (full Table S1); in test [1] (full Table S1); in the test on CEM-DNR (full Table S1)) was greater than 50 µM in each case. Besides, the IC50 (in the test with HCT 116 (full Table S1); in the test on U2OS (full Table S1); in [2] (full Table S1); with MRC-5 lung fibroblasts (full Table S1); in test [3] (full Table S1)) was greater than 50 µM throughout.
Regarding `CC1(C)C(=O)C(c2cncc3ccccc23)=C[C@@]2(C)C1CC[C@]1(C)C2CCC2C3[C@H]4OC[C@@]3(CCC4(C)C)CC[C@]21C` (stereo partly drawn) [Compound 4l, 2-(Isoquinolin-4-yl)-19β,28-epoxyolean-1-en-3-one], the IC50 was greater than 50 µM in the test with CCRF-CEM (Table 1); greater than 50 µM in the test on HCT116 p53–/– (Table 1); greater than 50 µM in the test on K562-TAX (Table 1); 32 µM with DU-145 (prostate cancer) (Table 1); 32.1 µM with DU-145 (prostate cancer) (full Table S1); greater than 50 µM in test [1] (Table 1). For the same molecule, the IC50 (in the test with CEM-DNR (Table 1); with HCT 116 (Table 1); in the test with U2OS (Table 1); in test [2] (Table 1); in the test on MRC-5 lung fibroblasts (Table 1); in [3] (Table 1)) was greater than 50 µM each time.
With `C=C(C)[C@@H]1CC[C@]2(C(=O)O)CC[C@]3(C)[C@H](CC[C@@H]4[C@@]5(C)CC[C@H](O)C(C)(C)[C@@H]5CC[C@]43C)[C@@H]12` [Betulinic acid 5, betulinic acid, reference compound], the IC50 in the test with CCRF-CEM (Table 1) was 8.1 µM; in the test on HCT116 p53–/– (Table 1) it was 16 µM; with K562-TAX (Table 1), 14 µM; in the test with K562-TAX (full Table S1) it was 14.1 µM; in the test with DU-145 (prostate cancer) (Table 1), 9.6 µM; in [1] (Table 1) it was 24 µM. For the same molecule, the IC50 with CEM-DNR (Table 1) came out at 14 µM; in the test on HCT 116 (Table 1) it was 16 µM; in the test with U2OS (Table 1), 21 µM; in test [2] (Table 1), 4.3 µM; in the test on MRC-5 lung fibroblasts (Table 1), 28 µM; in test [3] (Table 1), 9.4 µM. Moreover, the “SI (selectivity index)” value in the test on CCRF-CEM (setting [5]) is given as 3.2.
With `CC1(C)C(=O)C(c2ccoc2)=C[C@@]2(C)C1CC[C@]1(C)C2CCC2C3[C@H]4OC[C@@]3(CCC4(C)C)CC[C@]21C` (stereo partly drawn) [Compound 4b, 2-(Furan-3-yl)-19β,28-epoxyolean-1-en-3-one], the “SI (selectivity index)” value in the test on CCRF-CEM (setting [4]) was greater than 1.0. For the same molecule, the IC50 (with CCRF-CEM (full Table S1); with HCT116 p53–/– (full Table S1); in the test with K562-TAX (full Table S1); with DU-145 (prostate cancer) (full Table S1); in test [1] (full Table S1); with CEM-DNR (full Table S1)) was greater than 50 µM each time. The IC50 (with HCT 116 (full Table S1); in the test on U2OS (full Table S1); in [2] (full Table S1); in the test with MRC-5 lung fibroblasts (full Table S1); in test [3] (full Table S1)) was greater than 50 µM each time.
